In patent US4623535A, “Leukotriene antagonists” (SmithKline Beckman Corporation, priority 1984, dated 1986):

The molecules below were run against T1, leukotriene D4 (LTD4) induced contraction of guinea pig tracheal spiral strips (Cavia porcellus, UniProt Q2NNR5) (assay: Inhibition of leukotriene (LTD4) induced contraction of guinea pig tracheal tissues in vitro). Conditions: LTD4 agonist, 30 min pretreatment with test compound, meclofenamic acid 1 μM, EC30 relative to carbachol (10 μM), read-out: In Vitro -Log KB (converted).
T1 construct: Guinea pig (adult male albino Hartley strain) tracheal spiral strips; from tissue; host or cells: guinea pig trachea (spiral strips, adult male albino Hartley strain)
T1 sequence (Q2NNR5 1-340): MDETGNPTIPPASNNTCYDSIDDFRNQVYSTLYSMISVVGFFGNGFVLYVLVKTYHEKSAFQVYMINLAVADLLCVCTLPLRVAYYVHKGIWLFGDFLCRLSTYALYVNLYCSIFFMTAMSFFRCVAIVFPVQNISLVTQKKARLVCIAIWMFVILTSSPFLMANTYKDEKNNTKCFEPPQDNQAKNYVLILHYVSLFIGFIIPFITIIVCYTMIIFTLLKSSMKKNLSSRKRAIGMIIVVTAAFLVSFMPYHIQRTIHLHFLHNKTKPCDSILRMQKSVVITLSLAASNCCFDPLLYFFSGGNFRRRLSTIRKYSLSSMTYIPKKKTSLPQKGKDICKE
Format: cell-based, guinea pig (adult male albino Hartley strain)
Experimental: The leukotriene antagonist activity of the compounds of this invention is measured by the ability of the compounds to inhibit the leukotriene induced contraction of guinea pig tracheal tissues in vitro. The following methodology was employed:
In vitro: Guinea pig (adult male albino Hartley strain) tracheal spiral strips of approximate dimensions 2 to 3 mm cross-sectional with and 3.5 cm length were bathed in modified Krebs buffer in jacketed 10 ml tissue bath and continuously aerated with 95% O2 /5% CO2. The tissues were connected via silk suture to force displacement transducers for recording isometric tension. The tissues were equilibrated for 1 hr., pretreated for 15 minutes with meclofenamic acid (1 μM) to remove intrinsic prostaglandin responses, and then pretreated for an additional 30 minutes with either the test compound or vehicle control. A cumulative concentration-response curve for LTD4 on triplicate tissues was generated by successive increases in the bath concentration of the LTD4. In order to minimize intertissue variability, the contractions elicited by LTD4 were standardized as a percentage of the maximum response obtained to a reference agonist, carbachol (10 μM).
Calculations: The averages of the triplicate LTD4 concentration-response curves both in the presence and absence of the test compound were plotted on log graph paper. The concentration of LTD4 needed to elicit 30% of the contraction elicited by carbachol was measured and defined as the EC30. The -log KB value for the test compound was determined by the following equations: [formula]
The antagonist activity of representative compounds of this invention is tabulated below. The -log KB values were calculated from the above test protocol.

First: CCCCCCCCC#CC(SCCC(=O)O)SCCC(=O)O [R1 = C8 H17, m = 2, n = 2, 4,6-Dithia-5-(1-decynyl)-nonanedioic acid]
Second: CCCCCCCCCCC#CC(SCCC(=O)O)SCCC(=O)O [R1 = C10 H21, m = 2, n = 2, 4,6-dithia-5-(1-dodecynyl)-nonanedioic acid]
The Kb of the first is 13-fold higher: 10 µM for the first, 0.794 µM for the second.

First: CCCCCCCCCCC#CC(SCC(=O)O)SCC(=O)O [R1 = C10 H21, m = 1, n = 1, 3,5-dithia-4-(1-dodecynyl)-heptanedioic acid]
Second: CCCCCCCCCCC#CC(SCCCC(=O)O)SCCCC(=O)O [R1 = C10 H21, m = 3, n = 3, 5,7-dithia-6-(1-dodecynyl)-undecanedioic acid]
The Kb of the first is 1.6-fold higher: 5.01 µM for the first, 3.16 µM for the second.

`CCCCCCCCCCCCC#CC(SCCC(=O)O)SCCC(=O)O` [R1 = C12 H25, m = 2, n = 2, 4,6-dithia-5-(1-tetradecynyl)-nonanedioic acid] showed a Kb of 2 µM.
